Data on 13 compounds can be found in patent US8093265B2, “Bicycloheteroaryl compounds as P2X7 modulators and uses thereof” (Renovis, Inc., priority 2007, dated 2012).

For one data set, the target named is T1, P2X7 receptor (Homo sapiens, UniProt Q99572).
T1 construct: host or cells: THP-1 cells differentiated with LPS and IFN-γ
T1 sequence (Q99572 1-595): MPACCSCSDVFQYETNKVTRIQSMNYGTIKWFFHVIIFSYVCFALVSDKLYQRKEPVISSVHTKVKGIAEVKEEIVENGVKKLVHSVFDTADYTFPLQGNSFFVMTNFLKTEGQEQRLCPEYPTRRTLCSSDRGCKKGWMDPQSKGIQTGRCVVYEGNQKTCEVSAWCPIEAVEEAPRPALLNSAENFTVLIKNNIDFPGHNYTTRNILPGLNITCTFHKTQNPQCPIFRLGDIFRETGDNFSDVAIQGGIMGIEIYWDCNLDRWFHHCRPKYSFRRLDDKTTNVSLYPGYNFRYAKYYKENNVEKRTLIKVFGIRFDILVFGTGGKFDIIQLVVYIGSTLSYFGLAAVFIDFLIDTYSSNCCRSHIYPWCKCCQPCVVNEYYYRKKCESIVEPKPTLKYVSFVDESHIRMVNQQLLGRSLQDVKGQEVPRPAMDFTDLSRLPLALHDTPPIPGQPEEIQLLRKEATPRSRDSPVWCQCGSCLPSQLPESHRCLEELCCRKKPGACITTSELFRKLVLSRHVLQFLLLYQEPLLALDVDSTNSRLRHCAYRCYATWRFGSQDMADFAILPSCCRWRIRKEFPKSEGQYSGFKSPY
The experiment in a line: IL-1β release assay in differentiated THP-1 cells (Example 9). The format is cell-based. To be noted: THP-1 cells differentiated with LPS and IFN-γ; 30 min pretreatment; BzATP 250 uM; IL-1β by ELISA. The protocol: THP-1 cells (ATCC Cat #285-IF-100) are plated in 96 well plates at a concentration of 200,000 cells per well and allowed to differentiate in RPMI-1640 media (ATCC Cat #30-2001) containing 10% FBS, 100 IU/mL penicillin, 100 ug/mL streptomycin, 100 ng/mL LPS and 100 ng/mL IFN-γ for 16 hours. Following differentiation, the cells are treated for an additional 2 hours in RPMI-1640 media containing 100 IU/mL penicillin, 100 ug/mL streptomycin and fresh LPS at 100 ng/mL. The cells are then pretreated for 30 minutes with the compound of interest at the appropriate concentration in RPMI media containing 100 IU/mL penicillin, 100 ug/mL streptomycin. Following the pretreatment 2′,3′-O-(4-benzoylbenzoyl)-adenosine 5′-triphosphate (Sigma Aldrich Cat # B6396) is added to a final concentration of 250 uM, and the cells are incubated for an additional 45 minutes. 30 uL of cell supernatant is then collected and IL-1β levels are determined via ELISA (R&D systems Cat. # HSLB50) according to manufacturer's recommendations using a Tecan Safire plate reader. Background adjusted IL-1β levels of drug treated and non-treated cells are used to calculate the percent inhibition.
The following compounds have been or can be prepared according to the synthetic methods described herein for example, methods A-AA1. The compounds set forth in Table 1 were tested for activity in a cellular model as described herein. Specifically, cells were pretreated with differing amounts of the compound under test and released IL-1β determined as in Example 9, above. Measurements were made and IC50 values, presented in Table 1, below, were determined by fitting the data to a four parameter logistic equation using GraphPad Prism software (GraphPad Software, Inc). The equation may be expressed by the following formula: Y=Bottom+(Top−Bottom)/(1+10^((Log EC50−X)*HillSlope)) where X is the logarithm of concentration, Y is the response and Y starts at Bottom and goes to Top with a sigmoid shape.

Data set [1] is described as follows: Half-life in human liver microsomes (HLM). The format is in vitro ADME. To be noted: human liver microsomes 0.78 mg/mL, 1 μM compound, NADPH, 37° C.; for half-life at 1 μM: pH 7.4.
Description: Half-Life in Human Liver Microsomes (HLM)
Test compounds (1 μM) are incubated with 3.3 mM MgCl2 and 0.78 mg/mL HLM (HL101) in 100 mM potassium phosphate buffer (pH 7.4) at 37° C. on the 96-deep well plate. The reaction mixture is split into two groups, a non-P450 and a P450 group. NADPH is only added to the reaction mixture of the P450 group. An aliquot of samples of P450 group is collected at 0, 10, 30, and 60 min time point, where 0 min time point indicated the time when NADPH is added into the reaction mixture of P450 group. […] Collected aliquots are extracted with acetonitrile solution containing an internal standard. […] The compound concentration in supernatant is measured by LC/MS/MS system.
The half-life value is obtained by plotting the natural logarithm of the peak area ratio of compounds/internal standard versus time. The slope of the line of best fit through the points yields the rate of metabolism (k). This is converted to a half-life value using following equations: Half-life=ln 2/k
Data set [2] is described as follows: Plasma protein binding by equilibrium dialysis, human plasma. The format is in vitro ADME. The following applies: pH 7.4, equilibrium dialysis 16 hr at 37° C., % Bound. The protocol:
The plasma protein binding of compounds of invention is measured in human and rat plasma, respectively. A stock solution of the tested compound is prepared in 1 mg/mL in DMSO solution. The stock solution is spiked into the blank plasma to get a final compound concentration at 1 μg/mL for testing. Equilibrium dialysis (The equilibrium dialyzer-96TM MWCO 5K Daltons, Harvard Apparatus) method is used for the testing purpose.
The compound spiked plasma (at […]) and phosphate buffer (0.1 M, pH 7.4), 200 μl each, are added into the opposite sides of the membrane in a 96-well equilibrium dialyzer, respectively. The dialyzer plate is covered and incubated overnight (16 hr) at 37° C. in the 8-plate rotor incubator (Big Shot III 8-plate rotor, Harvard Apparatus). Aliquots (100 μL) are taken from the plasma and the buffer compartments, respectively. The matrix effects are eliminated by adding the same volume of blank plasma into the samples from buffer compartments and adding the same volume of phosphate buffer into the samples from plasma compartments. The samples are extracted by using the regular (3:1) protein precipitation extraction procedure (acetonitrile with internal standard). The supernatants are taken for LC/MS/MS analysis. The percentage of plasma-protein binding can be calculated by using the following method: % Free=[Free Drug/Total Drug]*100=[(Peak Area)buffer/(Peak Area)plasma]*100 % Bound=100−% Free.
For the purpose of Table 4, the plasma protein binding of each compound is expressed as follows: […]

As for `C[C@H](CO)n1ccc2c(NC(=O)Cc3ccc(F)c(C(F)(F)F)c3)c(Cl)ccc2c1=O` [Compound 13, N-[6-Chloro-2-((R)-2-hydroxy-1-methyl-ethyl)-1-oxo-1,2-dihydro-isoquinolin-5-yl]-2-(4-fluoro-3-trifluoromethyl-phenyl)-acetamide], the IC50 (in general, the concentration needed to halve the response being measured) at P2X7 receptor amounted to 0.4 nM. Also, in data set [1], the “Half Life” value came to 1.0 h. Also, in data set [2], the fraction unbound (in general, free concentration divided by total concentration) at 16 hr, 1 μg/mL was less than 0.1.

Turning to `Cc1ccc2c(=O)n([C@H](C)CO)ccc2c1NC(=O)Cc1ccc(C(F)(F)F)c(F)c1` [Compound 21, N-[6-Methyl-2-((R)-2-hydroxy-1-methyl-ethyl)-1-oxo-1,2-dihydro-isoquinolin-5-yl]-2-(3-fluoro-4-trifluoromethyl-phenyl)-acetamide], the IC50 on P2X7 receptor was 0.4 nM. The “Half Life” value in data set [1] was determined as 1.5 h. In addition, the fraction unbound at 16 hr, 1 μg/mL in data set [2] is less than 0.1.

Turning to `Cc1ccc2c(=O)n([C@H](C)CO)ccc2c1NC(=O)Cc1cccc(C(F)(F)F)c1F` [Compound 23, 2-(2-Fluoro-3-trifluoromethyl-phenyl)-N-[2-((R)-2-hydroxy-1-methyl-ethyl)-6-methyl-1-oxo-1,2-dihydro-isoquinolin-5-yl]-acetamide], the IC50 on P2X7 receptor turned out to be 11 nM. In addition, the half-life (usually how long it takes for the measured level to halve) at 1 μM in data set [1] was 1.4 h. The compound also came in with an unbound share (fraction unbound) at 16 hr, 1 μg/mL in data set [2] of less than 0.1.

With `Cc1ccc2c(=O)n([C@H](C)CO)ccc2c1NC(=O)Cc1ccc(C(F)(F)F)cc1` [Compound 25, N-[2-((R)-2-Hydroxy-1-methyl-ethyl)-6-methyl-1-oxo-1,2-dihydro-isoquinolin-5-yl]-2-(4-trifluoromethyl-phenyl)-acetamide], the IC50 on P2X7 receptor was 6 nM. In data set [1], this compound gave a half-life at 1 μM of 4.6 h. For the same compound, the fraction unbound at 16 hr, 1 μg/mL in data set [2] is 0.1 to 0.24.

Turning to `Cc1ccc2c(=O)n(CCO)ccc2c1NC(=O)Cc1ccc(C(F)(F)F)c(F)c1` [Compound 28, 2-(3-Fluoro-4-trifluoromethyl-phenyl)-N-[2-(2-hydroxy-ethyl)-6-methyl-1-oxo-1,2-dihydro-isoquinolin-5-yl]-acetamide], the IC50 at P2X7 receptor is 9 nM. Further, in data set [1], the “Half Life” value turned out to be 3.7 h. The fraction unbound at 16 hr, 1 μg/mL in data set [2] was less than 0.1.

In the case of `Cc1ccc2c(=O)n([C@H](C)CO)ccc2c1C(=O)NCc1ccc(C(F)(F)F)c(F)c1` [Compound 40, 2-((R)-2-Hydroxy-1-methyl-ethyl)-6-methyl-1-oxo-1,2-dihydro-isoquinoline-5-carboxylic acid 3-fluoro-4-trifluoromethyl-benzylamide], at P2X7 receptor, the IC50 is 3 nM. In data set [1], this compound showed a half-life at 1 μM of 2.6 h. For the same compound, in data set [2], the fraction unbound at 16 hr, 1 μg/mL is 0.1 to 0.24.

`C[C@H](CO)n1ccc2c(C(=O)NCc3ccc(C(F)(F)F)c(F)c3)c(Cl)ccc2c1=O` [Compound 41, 6-Chloro-2-((R)-2-hydroxy-1-methyl-ethyl)-1-oxo-1,2-dihydro-isoquinoline-5-carboxylic acid 3-fluoro-4-trifluoromethyl-benzylamide]: the IC50 on P2X7 receptor stood at 7 nM. Moreover, the half-life at 1 μM in data set [1] is 3 h. In addition, the fraction unbound at 16 hr, 1 μg/mL in data set [2] was less than 0.1.

With `Cc1ccc2c(=O)n([C@H](C)CO)ccc2c1C(=O)NCc1cccc(C(F)(F)F)c1` [Compound 42, 2-((R)-2-Hydroxy-1-methyl-ethyl)-6-methyl-1-oxo-1,2-dihydro-isoquinoline-5-carboxylic acid 3-trifluoromethyl-benzylamide], the IC50 on P2X7 receptor turned out to be 7 nM. The compound further showed a half-life at 1 μM in data set [1] of 0.8 h. In data set [2], this compound gave a fraction unbound at 16 hr, 1 μg/mL of less than 0.1.

`C[C@H](CO)n1ccc2c(C(=O)NCC3(O)CCC(C(F)(F)F)CC3)c(Cl)ccc2c1=O` (stereo partly drawn) [Compound 56, 6-Chloro-2-((R)-2-hydroxy-1-methyl-ethyl)-1-oxo-1,2-dihydro-isoquinoline-5-carboxylic acid (1-hydroxy-4-trifluoromethyl-cyclohexylmethyl)-amide]: the IC50 on P2X7 receptor was determined as 9 nM. Also, the half-life at 1 μM in data set [1] was 0.7 h. For the same compound, the fraction unbound at 16 hr, 1 μg/mL in data set [2] lay within 0.25 to 0.49.

On to `Cc1ccc2c(=O)n([C@H](C)CN3CC(O)C3)ccc2c1NC(=O)Cc1ccc(C(F)(F)F)c(F)c1` [Compound 64, 2-(3-Fluoro-4-trifluoromethyl-phenyl)-N-{2-[(R)-2-(3-hydroxy-azetidin-1-yl)-1-methyl-ethyl]-6-methyl-1-oxo-1,2-dihydro-isoquinolin-5-yl}-acetamide], for which the IC50 at P2X7 receptor was determined as 9 nM. Besides, the fraction unbound at 16 hr, 1 μg/mL in data set [2] is 0.1 to 0.24.

On to `C[C@H](CO)n1ccc2c(C(=O)NCC3(O)CCC4(CC3)CC4(F)F)c(Cl)ccc2c1=O` (stereo partly shown) [Compound 65], for which the IC50 at P2X7 receptor turned out to be 0.3 nM. For the same compound, the half-life at 1 μM in data set [1] is 0.62 h. In data set [2], this compound registered a fraction unbound at 16 hr, 1 μg/mL of 0.25 to 0.49.

Turning to `Cc1ccc2c(=O)n([C@H](C)CN3CC[C@@H](N)C3)ccc2c1NC(=O)Cc1ccc(C(F)(F)F)c(F)c1` [Compound 67], on P2X7 receptor, the IC50 is 2 nM. Moreover, the fraction unbound at 16 hr, 1 μg/mL in data set [2] was 0.1 to 0.24.

Turning to `C[C@H](CO)n1ccc2c(C(=O)NCC3(O)CCC(F)(F)CC3)c(Cl)ccc2c1=O` [Compound 68], the half-inhibitory concentration (IC50) at P2X7 receptor stood at 3 nM. The compound also gave a half-life at 1 μM in data set [1] of 0.65 h. Moreover, the fraction unbound at 16 hr, 1 μg/mL in data set [2] was in the range of 0.25 to 0.49.
